Assay: xn = mol fraction of the nth substance listed

CCOC(=O)C(=O)OCC + Cc1ccccc1
viscosity [mPa·s], 101 kPa
Details | 303.15 K | 313.15 K | 323.15 K
x1 = 0.0804 | 0.5603 | – | –
x1 = 0.1006 | 0.581 | 0.516 | 0.465
x1 = 0.1644 | 0.5912 | – | –
x1 = 0.2019 | 0.651 | 0.578 | 0.514
x1 = 0.2523 | 0.6413 | – | –
x1 = 0.3013 | 0.725 | 0.646 | 0.571
x1 = 0.3443 | 0.7072 | – | –
x1 = 0.4005 | 0.811 | 0.712 | 0.628
x1 = 0.4403 | 0.7809 | – | –
x1 = 0.502 | 0.907 | 0.788 | 0.691
x1 = 0.5414 | 0.8798 | – | –
x1 = 0.6024 | 1.028 | 0.887 | 0.77
x1 = 0.6481 | 1.007 | – | –
x1 = 0.6988 | 1.151 | 0.988 | 0.855
x1 = 0.7597 | 1.167 | – | –
x1 = 0.7971 | 1.289 | 1.095 | 0.943
x1 = 0.8762 | 1.38 | – | –
x1 = 0.8936 | 1.442 | 1.222 | 1.044

COCCO + CC(C)=O
viscosity [mPa·s], 101.33 kPa
Details | 293.15 K | 298.15 K | 303.15 K
x1 = 0.0508 | 0.373 | 0.356 | 0.342
x1 = 0.1006 | 0.439 | 0.416 | 0.397
x1 = 0.1509 | 0.507 | 0.477 | 0.453
x1 = 0.2015 | 0.563 | 0.527 | 0.5
x1 = 0.2496 | 0.613 | 0.572 | 0.541
x1 = 0.2998 | 0.652 | 0.607 | 0.574
x1 = 0.351 | 0.688 | 0.64 | 0.603
x1 = 0.3995 | 0.726 | 0.673 | 0.632
x1 = 0.4503 | 0.767 | 0.709 | 0.663
x1 = 0.5006 | 0.818 | 0.753 | 0.7
x1 = 0.5504 | 0.875 | 0.804 | 0.742
x1 = 0.6007 | 0.941 | 0.861 | 0.79
x1 = 0.6496 | 1.012 | 0.923 | 0.845
x1 = 0.6998 | 1.09 | 0.991 | 0.905
x1 = 0.7502 | 1.17 | 1.062 | 0.969
x1 = 0.8004 | 1.248 | 1.132 | 1.033
x1 = 0.8511 | 1.333 | 1.209 | 1.106
x1 = 0.8999 | 1.419 | 1.287 | 1.179
x1 = 0.9503 | 1.542 | 1.398 | 1.278

CCOC(=O)C(=O)OCC + ClC(Cl)Cl
303.15 K, 101 kPa
Details | viscosity [mPa·s]
x1 = 0.0624 | 0.606
x1 = 0.1302 | 0.712
x1 = 0.2043 | 0.825
x1 = 0.2854 | 0.942
x1 = 0.3747 | 1.051
x1 = 0.473 | 1.157
x1 = 0.5831 | 1.28
x1 = 0.7057 | 1.399
x1 = 0.8436 | 1.539

CCCC(=O)O + O
Details | viscosity [mPa·s]
293.15 K, 101 kPa, x1 = 0.015 | 1.31
293.15 K, 101 kPa, x1 = 0.034 | 1.64
293.15 K, 101 kPa, x1 = 0.078 | 2.41
293.15 K, 101 kPa, x1 = 0.165 | 3.24
293.15 K, 101 kPa, x1 = 0.316 | 3.71
293.15 K, 101 kPa, x1 = 0.497 | 3.6
293.15 K, 101 kPa, x1 = 0.664 | 3.25
293.15 K, 101.33 kPa, x1 = 0.0222 | 1.332
293.15 K, 101.33 kPa, x1 = 0.0806 | 2.265
293.15 K, 101.33 kPa, x1 = 0.17 | 3.095
298.15 K, 101 kPa, x1 = 0.006288 | 0.973
298.15 K, 101 kPa, x1 = 0.01294 | 1.065
298.15 K, 101 kPa, x1 = 0.02 | 1.152
298.15 K, 101 kPa, x1 = 0.02743 | 1.248
298.15 K, 101 kPa, x1 = 0.03475 | 1.344
298.15 K, 101 kPa, x1 = 0.04154 | 1.44
298.15 K, 101 kPa, x1 = 0.04898 | 1.55
298.15 K, 101 kPa, x1 = 0.05981 | 1.695
298.15 K, 101 kPa, x1 = 0.07342 | 1.881
298.15 K, 101 kPa, x1 = 0.08697 | 2.038
298.15 K, 101 kPa, x1 = 0.1045 | 2.222
298.15 K, 101 kPa, x1 = 0.1191 | 2.365
298.15 K, 101 kPa, x1 = 0.133 | 2.463
298.15 K, 101 kPa, x1 = 0.144 | 2.538
298.15 K, 101 kPa, x1 = 0.17 | 2.699
298.15 K, 101 kPa, x1 = 0.2 | 2.823
298.15 K, 101 kPa, x1 = 0.237 | 2.941
298.15 K, 101 kPa, x1 = 0.277 | 3.039
298.15 K, 101 kPa, x1 = 0.321 | 3.121
298.15 K, 101 kPa, x1 = 0.36 | 3.129
298.15 K, 101 kPa, x1 = 0.408 | 3.136
298.15 K, 101 kPa, x1 = 0.472 | 3.095
298.15 K, 101 kPa, x1 = 0.529 | 3.032
298.15 K, 101 kPa, x1 = 0.618 | 2.861
298.15 K, 101 kPa, x1 = 0.669 | 2.702
298.15 K, 101 kPa, x1 = 0.816 | 2.249
308.15 K, 101 kPa, x1 = 0.006288 | 0.777
308.15 K, 101 kPa, x1 = 0.01294 | 0.844
308.15 K, 101 kPa, x1 = 0.02 | 0.911
308.15 K, 101 kPa, x1 = 0.02743 | 0.979
308.15 K, 101 kPa, x1 = 0.03475 | 1.048
308.15 K, 101 kPa, x1 = 0.04154 | 1.12
308.15 K, 101 kPa, x1 = 0.04898 | 1.201
308.15 K, 101 kPa, x1 = 0.05981 | 1.308
308.15 K, 101 kPa, x1 = 0.07342 | 1.445
308.15 K, 101 kPa, x1 = 0.08697 | 1.563
308.15 K, 101 kPa, x1 = 0.1045 | 1.695
308.15 K, 101 kPa, x1 = 0.1191 | 1.769
308.15 K, 101 kPa, x1 = 0.133 | 1.873
308.15 K, 101 kPa, x1 = 0.144 | 1.932
308.15 K, 101 kPa, x1 = 0.17 | 2.049
308.15 K, 101 kPa, x1 = 0.2 | 2.15
308.15 K, 101 kPa, x1 = 0.237 | 2.243
308.15 K, 101 kPa, x1 = 0.277 | 2.322
308.15 K, 101 kPa, x1 = 0.321 | 2.392
308.15 K, 101 kPa, x1 = 0.36 | 2.415
308.15 K, 101 kPa, x1 = 0.408 | 2.415
308.15 K, 101 kPa, x1 = 0.472 | 2.398
308.15 K, 101 kPa, x1 = 0.529 | 2.358
308.15 K, 101 kPa, x1 = 0.618 | 2.248
308.15 K, 101 kPa, x1 = 0.669 | 2.142
308.15 K, 101 kPa, x1 = 0.816 | 1.819
313.15 K, 101.33 kPa, x1 = 0.0222 | 0.848
313.15 K, 101.33 kPa, x1 = 0.0806 | 1.327
313.15 K, 101.33 kPa, x1 = 0.17 | 1.786

CCCC(=O)O + C1COCO1
298.15 K, 101 kPa
Details | viscosity [mPa·s]
x2 = 0.2292 | 1.358
x2 = 0.3376 | 1.288
x2 = 0.5433 | 1.098
x2 = 0.6408 | 0.9928
x2 = 0.7351 | 0.8845
x2 = 0.8263 | 0.7758
x2 = 0.9146 | 0.6775

C1CCNCC1 + CCOC(C)=O
303.15 K, 101 kPa
Details | viscosity [mPa·s]
x1 = 0.1 | 0.45
x1 = 0.2 | 0.49
x1 = 0.3 | 0.53
x1 = 0.4 | 0.565
x1 = 0.5 | 0.625
x1 = 0.6 | 0.71
x1 = 0.7 | 0.795
x1 = 0.8 | 0.895
x1 = 0.9 | 1.04

CC[N+](CC)(CC)CC.[OH-] + O
viscosity [mPa·s], 101 kPa
Details | x1 = 0.00313 | x1 = 0.0064 | x1 = 0.01341 | x1 = 0.02113 | x1 = 0.02968 | x1 = 0.03918 | x1 = 0.04982
298.15 K | 0.9776 | 1.114 | 1.248 | 1.659 | 2.07 | 2.869 | 3.679
303.15 K | 0.8738 | 0.9902 | 1.107 | 1.453 | 1.8 | 2.455 | 3.111
313.15 K | 0.7149 | 0.8019 | 0.8902 | 1.144 | 1.399 | 1.856 | 2.313
323.15 K | 0.6005 | 0.6598 | 0.7359 | 0.9278 | 1.121 | 1.45 | 1.779

From the CheMixHub viscosity set
